From US20250207131A1, “MODIFIED RNA AGENTS WITH REDUCED OFF-TARGET EFFECT” (Alnylam Pharmaceuticals, Inc., priority 2018, published 2025) come the findings set out here.

As usually defined, the IC50 is the point on the concentration scale where inhibition reaches its midpoint. The low end stands for inhibition by little substance, the high end for a need for much substance.

Data set [1] can be described thus: Temperature-dependent UV spectroscopy, Tm of modified siRNA duplexes. The following applies: 1 μM duplex, 0.25x PBS. It is filed as physicochemical. Here is the method: Temperature-dependent UV Spectroscopy: The melting studies were performed at a duplex concentration of 1 μM (consisting of the modified antisense […]) in 1 cm path length quartz cells on a Cary 300 spectrophotometer equipped with a thermoprogrammer. Each cuvette contained 800 μL of sample solution covered by 200 μL of light mineral oil. Melting curves were monitored at 260 nm with a heating rate of 1° C./min from 15-90° C. Melting temperatures (Tm) were calculated from the first derivatives of the smoothed heating curves and the reported values are the result of at least two independent measurements.

Data set [2] has as its system luciferase reporter plasmids (psiCHECK2, Renilla luciferase fused to target sequence). Briefly: Off-target Dual-Glo luciferase reporter assay in COS-7 cells. The format is cell-based. Here is the method:
Dual-Glo® Luciferase assay: Cos7 cells (ATCC, Manassas, VA) were grown to near confluence at 37° C. in an atmosphere of 5% CO2 in DMEM (ATCC) supplemented with 10% FBS, before being released from the plate by trypsinization. siRNA and psiCHCECK2 plasmid transfection was carried out by adding 5 μL of siRNA duplexes and 5 μL of psiCHECK2 plasmid per well along with 5 μL of Opti-MEM plus 0.1 μL of Lipofectamine 2000 per well (Invitrogen, Carlsbad CA. cat #13778-150) and then incubated at room temperature for 15 minutes. The mixture was then added to the cells which were re-suspended in 35 ul of fresh complete media. The transfected cells were incubated at 37° C. in an atmosphere of 5% CO2.
48 hours after the siRNAs and psiCHECK2 plasmid were transfected; Firefly (transfection control) and Renilla (fused to target sequence) luciferase were measured. First, media was removed from cells. Then Firefly luciferase activity was measured by adding 20 μL of Dual-Glo® Luciferase Reagent equal to the culture medium volume to each well and mix. The mixture was incubated at room temperature for 30 minutes before luminescence (500 nm) was measured on a Spectramax (Molecular Devices) to detect the Firefly luciferase signal. Renilla luciferase activity was measured by adding 20 μL of room temperature of Dual-Glo® Stop & Glo® Reagent was added to each well and the plates were incubated for 10-15 minutes before luminescence was again measured to determine the Renilla luciferase signal. The Dual-Glo® Stop & Glo® Reagent, quenches the firefly luciferase signal and sustained luminescence for the Renilla luciferase reaction. siRNA activity was determined by normalizing the Renilla signal to the Firefly (control) signal within each well. The magnitude of siRNA activity was then assessed relative to cells that were transfected with the same vector but were not treated with siRNA or were treated with a non-targeting siRNA. All transfections were done at n=2 or greater.

The subject of a further data set is TTR. Nature of the data set: In vitro on-target activity, primary mouse hepatocytes, free uptake (TTR siRNAs). It is filed as cell-based. As to conditions: 1 nM, log2 transformed, relative to the parent.
The mark [3] stands for this setting: antisense Position 5, Seq 3 (TTR).
The mark [4] stands for this setting: antisense Position 7, Seq 3 (TTR).
Setting [5] is: antisense Position 7, Seq 4 (TTR).
The mark [6] stands for this setting: TTR-3, antisense strand modified at position 5, luciferase reporter, COS-7 cells.
Where [7] appears, read: TTR-3, antisense strand modified at position 7, luciferase reporter, COS-7 cells.
[8] abbreviates: TTR-4, modification at antisense position 7, luciferase reporter plasmids co-transfected with siRNAs into COS-7 cells.

Regarding 2′-(R)-Me-UNA [Mod 7 (R)], the “Thermal melting temperature (Tm)” value in data set [1] (setting [3]) was found to be 84.0 °C; in data set [1] (setting [4]) it was 80.0 °C; in data set [1] (setting [5]), 82.1 °C. Besides, the values for the IC50 in data set [2] (setting [6]), in data set [2] (setting [7]) and in data set [2] (setting [8]) were greater than 50 nM, greater than 50 nM and 1.61 nM, respectively. Moreover, the “On-target FU” value in the data set on TTR (setting [3]) is 0.02; with TTR (setting [4]), −0.35; in the data set with TTR (setting [5]) it was −0.24.
2′-(S)-Me-UNA [Mod 7 (S)]: the “Thermal melting temperature (Tm)” value in data set [1] (setting [3]) was determined as 84.3 °C; in data set [1] (setting [4]), 80.0 °C; in data set [1] (setting [5]), 83.0 °C. The results for the IC50 in data set [2] (setting [6]), in data set [2] (setting [7]) and in data set [2] (setting [8]) were greater than 50 nM, greater than 50 nM and 1.35 nM, respectively. For the same substance, the “On-target FU” value is −0.10 in the data set on TTR (setting [3]), −0.02 with TTR (setting [4]) and −0.14 in the data set with TTR (setting [5]).
For the substance 3′-(R)-Me-UNA [Mod 6 (R)], the “Thermal melting temperature (Tm)” value came to 84.1 °C in data set [1] (setting [3]), 81.2 °C in data set [1] (setting [4]) and 82.0 °C in data set [1] (setting [5]). Moreover, the IC50 in data set [2] (setting [6]) is greater than 50 nM; in data set [2] (setting [7]), greater than 50 nM; in data set [2] (setting [8]), 2.86 nM. Further, the “On-target FU” value is reported as −0.78 with TTR (setting [3]), −0.32 with TTR (setting [4]) and 0.36 in the data set on TTR (setting [5]).
Consider 3′-(S)-Me-UNA [Mod 6 (S)], for which the “Thermal melting temperature (Tm)” value in data set [1] (setting [3]) is 84.0 °C; in data set [1] (setting [4]), 81.1 °C; in data set [1] (setting [5]) it was 82.0 °C. Further, the IC50 in data set [2] (setting [6]) is greater than 50 nM; in data set [2] (setting [7]) it was greater than 50 nM; in data set [2] (setting [8]), 3.65 nM. For the same substance, the “On-target FU” value in the data set with TTR (setting [3]) is −0.38; in the data set with TTR (setting [4]) it was −0.53; in the data set on TTR (setting [5]) it was −0.09.
5′-(R)-Me-UNA [Mod 5 (R)]: the “Thermal melting temperature (Tm)” value was found to be 84.2 °C in data set [1] (setting [3]), 80.3 °C in data set [1] (setting [4]) and 82.0 °C in data set [1] (setting [5]). Also, the values for the IC50 in data set [2] (setting [6]), in data set [2] (setting [7]) and in data set [2] (setting [8]) were greater than 50 nM, greater than 50 nM and 8.13 nM, respectively. In addition, the “On-target FU” value is −0.16 in the data set on TTR (setting [3]), −0.03 in the data set with TTR (setting [4]) and −0.33 in the data set on TTR (setting [5]).
For the substance 5′-(S)-Me-UNA [Mod 5 (S)], the “Thermal melting temperature (Tm)” value came out at 84.2 °C in data set [1] (setting [3]), 80.3 °C in data set [1] (setting [4]) and 82.0 °C in data set [1] (setting [5]). The results for the IC50 in data set [2] (setting [6]), in data set [2] (setting [7]) and in data set [2] (setting [8]) were greater than 50 nM, greater than 50 nM and 8.73 nM, respectively. The “On-target FU” value in the data set with TTR (setting [3]) is −0.87; in the data set on TTR (setting [4]) it was −1.20; with TTR (setting [5]), 0.22.
